The values that follow come from patent EP0403591B1, “CRF ANALOGS” (THE SALK INSTITUTE FOR BIOLOGICAL STUDIES, priority 1988, dated 1994).

“Also recorded” adds a separate entry of the source. Non-standard residues stand in square brackets, D forms with d. Residues, ends and D or L forms follow the SMILES beside them. No end group written: not given here. *: point of attachment. Nle = CCCC[C@H](N)C(=O)O; Bz = O=C(c1ccccc1)*

Assay [1] can be described thus: Lowering of blood pressure (in vivo testing, general procedure of Example III). The conditions noted are these: testing by the general procedure of Example III.
Assay [2] has as its system cultured rat pituitary cells. The assay can be described thus: Secretion of ACTH and β-endorphin by cultured rat pituitary cells (procedure of Example III). Type of assay: cell-based. As to conditions: for secretion of ACTH and β-END-LI: testing by the general procedure of Example III (in vitro and in vivo); for EC50: stimulation of secretion of ACTH and β-endorphin by cultured rat pituitary cells, read-out: Half-maximal responses (concentration). The procedure:
The synthetic peptide from Example I and synthetic oCRF are examined for their effects on the secretion of ACTH and β-endorphin in vitro and also in vivo.
The potency of synthetic oCRF to stimulate the secretion of ACTH and β-endorphin by cultured rat pituitary cells is measured using the procedure as generally set forth in Endocrinology, 91, 562 (1972). Half-maximal responses are observed at concentrations of the peptide very substantially less than the synthetic oCRF concentrations of about 250 picomolar which are needed to achieve this response. In vivo testing is carried out using the general procedure set forth in C. Rivier et al., Science, 218, 377 (1982), and biological potency is ascertained.

A further assay relates to ACTH and β-endorphin. As to conditions: background statement; in vitro and in vivo; cited from earlier work.
The conditions of assay [3]: background statement; cited from earlier work.
For assay [4] the following is noted: background statement; in mammals; cited from earlier work.
The conditions of assay [5]: administered into the ventricles, rats; cited from earlier work.

On to “SQEPPISLDLTFHLLRE[Nle]LH[Nle]AKAEQEAEQAALNRLLLEEA-NH2 [XI]”, for which the “lowering of blood pressure” value in assay [1] was “very significant lowering of blood pressure”. In addition, the “secretion of ACTH and β-END-LI” value in assay [2] was “stimulates the secretion of ACTH and β-END-LI”.

On to `CC[C@H](C)[C@H](NC(=O)[C@H](CC(=O)O)NC(=O)[C@H](CC(C)C)NC(=O)[C@H](CC(C)C)NC(=O)[C@H](CCCCN)NC(=O)[C@H](CCCNC(=N)N)NC(=O)[C@H](CC(N)=O)NC(=O)[C@H](CO)NC(=O)[C@H](Cc1c[nH]cn1)NC(=O)[C@H](C)NC(=O)[C@H](CCC(N)=O)NC(=O)[C@H](CCC(N)=O)NC(=O)[C@H](C)NC(=O)[C@H](CC(C)C)NC(=O)[C@H](CCC(N)=O)NC(=O)[C@H](CC(=O)O)NC(=O)[C@H](C)NC(=O)[C@H](CCCCN)NC(=O)[C@@H](NC(=O)[C@H](CCSC)NC(=O)[C@H](CCC(=O)O)NC(=O)[C@H](CC(C)C)NC(=O)[C@@H](NC(=O)[C@H](CCC(=O)O)NC(=O)[C@H](CCCNC(=N)N)NC(=O)[C@H](CC(C)C)NC(=O)[C@H](CC(C)C)NC(=O)[C@H](Cc1c[nH]cn1)NC(=O)[C@H](Cc1ccccc1)NC(=O)[C@@H](NC(=O)[C@H](CC(C)C)NC(=O)[C@H](CC(=O)O)NC(=O)[C@H](CC(C)C)NC(=O)[C@H](CO)NC(=O)[C@@H](NC(=O)[C@@H]1CCCN1C(=O)[C@@H]1CCCN1C(=O)[C@H](CCC(=O)O)NC(=O)[C@H](CCC(N)=O)NC(=O)[C@@H](N)CO)[C@@H](C)CC)[C@@H](C)O)C(C)C)[C@@H](C)O)C(=O)N[C@@H](C)C(N)=O` [oCRF, ovine CRF], for which the “secretion of ACTH and β-endorphin” value in the assay on ACTH and β-endorphin was “stimulating the secretion of ACTH and β-endorphin; also recorded: stimulate ACTH and β-endorphin activities in vitro and in vivo”. In addition, the gastric acid production result in assay [3] is given as “inhibits gastric acid production”. Also, the lowering blood pressure entry in assay [4] was “biological activity in lowering blood pressure; also recorded: substantially lower blood pressure for an extended time period”. For the same compound, the EC50 in assay [2] is roughly 0.25 nM.

Regarding “Bz-GEEPPISLDLT[Nle]HLLREVLHMARAEQLAQQAHSNRRLMEII-NH2 [VI, [Benzoyl-Gly¹, Nle¹², His²⁰, Arg³⁶]-rCRF]”, in assay [1], the “lowering of blood pressure” value is given as “very significant lowering of blood pressure”. Further, the “secretion of ACTH and β-END-LI” value in assay [2] was “stimulates the secretion of ACTH and β-END-LI”.

As for “SQEPPISLELTFHLLRE[Nle]LHRAKAEQEAEQAALNRLLLEEA-NH2 [X]”, in assay [1], the “lowering of blood pressure” value was “very significant lowering of blood pressure”. Also, the “secretion of ACTH and β-END-LI” value in assay [2] was “stimulates the secretion of ACTH and β-END-LI”.

For the compound “SEEPPISLDLTFHLLREVLHMARAEQLAQQAHSNRKLMEII-NH2 [Example I, [His²⁰]-rCRF]”, in assay [2], the EC50 was less than 0.25 nM.

For the compound “SQEPPISLDLTFHMLREMLHRAKMEGEAEQALINRNLLEEA-NH2 [XIII]”, the “lowering of blood pressure” value in assay [1] is “very significant lowering of blood pressure”. The “secretion of ACTH and β-END-LI” value in assay [2] was “stimulates the secretion of ACTH and β-END-LI”.

Take “SEEPPISLDLTFHLLREVLH[Nle]ARAEQLAQQALINRKLMEEI-NH2 [VIII, [His²⁰, Nle²¹, Leu³², Ile³³, Glu⁴⁰]-rCRF]”: the “lowering of blood pressure” value in assay [1] is listed as “very significant lowering of blood pressure to a greater extent than rCRF”. Besides, the “secretion of ACTH and β-END-LI” value in assay [2] was “stimulates the secretion of ACTH and β-END-LI”.

Regarding “SQEPPISLDLTFHLLREVLHMTKADQLAQQAHSNRNLLDIA-NH2 [XIV, [His²⁰, Asn³⁶]-oCRF]”, the “lowering of blood pressure” value in assay [1] is given as “very significant lowering of blood pressure”. Besides, the “secretion of ACTH and β-END-LI” value in assay [2] was “stimulates the secretion of ACTH and β-END-LI”.

In the case of “Rat CRF (SEEPPISLDLTFHLLREVLEMARAEQLAQQAHSNRKLMEII; ends and bridges not checked; UniProt P01143 145-185, looked up) [rCRF, hentetracontapeptide; formula of human CRF is the same as that of rCRF]”, the “secretion of ACTH and β-endorphin” value in the assay on ACTH and β-endorphin is “stimulate ACTH and β-endorphin activities in vitro and in vivo”. The lowering blood pressure entry in assay [4] is given as “substantially lower blood pressure for an extended time period”.

With `CCCC[C@H](NC(=O)[C@H](Cc1c[nH]cn1)NC(=O)[C@H](CC(C)C)NC(=O)[C@H](CCCC)NC(=O)[C@H](CCC(=O)O)NC(=O)[C@H](CCCNC(=N)N)NC(=O)[C@H](CC(C)C)NC(=O)[C@H](CC(C)C)NC(=O)[C@H](Cc1c[nH]cn1)NC(=O)[C@H](Cc1ccccc1)NC(=O)[C@@H](NC(=O)[C@H](CC(C)C)NC(=O)[C@H](CC(=O)O)NC(=O)[C@H](CC(C)C)NC(=O)[C@H](CO)NC(=O)[C@@H](NC(=O)[C@@H]1CCCN1C(=O)[C@@H]1CCCN1)[C@@H](C)CC)[C@@H](C)O)C(=O)N[C@@H](C)C(=O)N[C@@H](CCCNC(=N)N)C(=O)N[C@@H](C)C(=O)N[C@@H](CCC(=O)O)C(=O)N[C@@H](CCC(N)=O)C(=O)N[C@@H](CCC(=O)O)C(=O)N[C@@H](C)C(=O)N[C@@H](CCC(=O)O)C(=O)N[C@@H](CCC(N)=O)C(=O)N[C@@H](C)C(=O)N[C@@H](CC(C)C)C(=O)N[C@@H](CC(C)C)C(=O)N[C@@H](CC(N)=O)C(=O)N[C@@H](CCCNC(=N)N)C(=O)N[C@@H](CC(N)=O)C(=O)N[C@@H](CC(C)C)C(=O)N[C@@H](CC(C)C)C(=O)N[C@@H](CCC(=O)O)C(=O)N[C@@H](CCC(=O)O)C(=O)N[C@@H](C)C(N)=O` [XVII] (H-PPISLDLTFHLLRE[Nle]LH[Nle]ARAEQEAEQALLNRNLLEEA-NH2), the “lowering of blood pressure” value in assay [1] was “very significant lowering of blood pressure”. Moreover, in assay [2], the “secretion of ACTH and β-END-LI” value was “stimulates the secretion of ACTH and β-END-LI”.

For “SQEPPISLDLTFHMLREMLHMAKMEQEAEQAALNRLLLEEA-NH2 [XVIII]”, the “lowering of blood pressure” value in assay [1] is “very significant lowering of blood pressure”. Moreover, in assay [2], the “secretion of ACTH and β-END-LI” value was “stimulates the secretion of ACTH and β-END-LI”.

Turning to “SEEPPISLDLTFHLLREVLHMARAEGLAQQAHSNRKLMEII-NH2 [IV, [His²⁰, Gly²⁶)-rCRF]”, the “lowering of blood pressure” value in assay [1] is listed as “very significant lowering of blood pressure”. Besides, the “secretion of ACTH and β-END-LI” value in assay [2] is “stimulates the secretion of ACTH and β-END-LI”.

Take Sauvagine: the “secretion of ACTH and β-endorphin” value in the assay on ACTH and β-endorphin was “stimulating the secretion of ACTH and β-endorphin”. The lowering blood pressure result in assay [4] is “biological activity in lowering blood pressure”.

As to “SEEPPISLELTFHLLREVLH[Nle]ARAEQLAEQAHINRKLMEII-NH2 [V, [Glu⁹, His²⁰, Nle²¹, Glu²⁹, Ile³³]-rCRF]”, in assay [1], the “lowering of blood pressure” value is “very significant lowering of blood pressure to a greater extent than rCRF”. Moreover, the “secretion of ACTH and β-END-LI” value in assay [2] was “stimulates the secretion of ACTH and β-END-LI”.

As for “SQ[dY]PPISLDLTFHLLRE[Nle]LH[Nle]AKAGQEAEQAALNRLLLEEA-NH2 [XII]”, in assay [1], the “lowering of blood pressure” value is given as “very significant lowering of blood pressure”. The “secretion of ACTH and β-END-LI” value in assay [2] is “stimulates the secretion of ACTH and β-END-LI”.

Consider “Ac-PPISLDLTFHLLREVLHMARAEQLAEQAHSNRNLMEEI-NH2 [VII, [Acetyl-Pro⁴, His²⁰, Glu^29,40, Asn³⁶]-rCRF(4-41)]”, for which the “lowering of blood pressure” value in assay [1] was “very significant lowering of blood pressure to a greater extent than rCRF”. Besides, the “secretion of ACTH and β-END-LI” value in assay [2] was “stimulates the secretion of ACTH and β-END-LI”.

As for “SQEPPISLDLTFHLLREMLHRAKAEQEAEQAAINRLLLEEA-NH2 [XIX]”, in assay [1], the “lowering of blood pressure” value was “very significant lowering of blood pressure”. The “secretion of ACTH and β-END-LI” value in assay [2] is “stimulates the secretion of ACTH and β-END-LI”.

“SEEPPISLDLTFHLLREVLHRARAEQLAQQALINRKLMEII-NH2 [IX, [His²⁰, Arg²¹, Leu³², Ile³³]-rCRF]”: the “lowering of blood pressure” value in assay [1] is “very significant lowering of blood pressure to a greater extent than rCRF”. Moreover, the “secretion of ACTH and β-END-LI” value in assay [2] is “stimulates the secretion of ACTH and β-END-LI”.

Consider “CRF: corticotropin releasing factor, species not specified (SEEPPISLDLTFHLLREVLEMARAEQLAQQAHSNRKLMEII; ends and bridges not checked; UniProt P06850 154-194, looked up)”, for which the “activity and learning performance” value in assay [5] was “increases activity and improves learning performance”.

For the compound “SQEPPISLDLTFHLLREVLH[Nle]TKADQLAQQAHSNRKLLDIA-NH2 [XV, [His²⁰, Nle²¹]-oCRF]”, the “lowering of blood pressure” value in assay [1] is listed as “very significant lowering of blood pressure”. Moreover, the “secretion of ACTH and β-END-LI” value in assay [2] was “stimulates the secretion of ACTH and β-END-LI”.

Take [D-Pro⁴, His²⁰]-oCRF(4-41) [XVI]: in assay [1], the “lowering of blood pressure” value is on record as “very significant lowering of blood pressure”. In addition, the “secretion of ACTH and β-END-LI” value in assay [2] is “stimulates the secretion of ACTH and β-END-LI”.
